Source: PubChem BioAssay AID290 (DTP/NCI, 2004)
Values joined by “and” are separate entries in the source; they are usually repeats but may differ in a detail not shown here. Identical values can stand only once. Records with an inconclusive call do not appear.

System: mice, P1798 lymphosarcoma sc, survival or tumor weight T/C
Experiment: NCI In Vivo Anticancer Drug Screen. Data for tumor model P1798 Lymphosarcoma (subcutaneous) in unknown mice
Details: endpoint: mean tumor weight, higher = larger tumour
Procedure: The antitumor activity of compounds was measured in mice bearing transplantable tumors. Survival or tumor size were measured and the results are expressed as the measurement made in the treated group (T) divided by the measurement made in the vehicle treated control group (C). The tumor model used in this assay is P1798 Lymphosarcoma (subcutaneous) in unknown mice

[1] = dose: 25.0 mg/kg/injection, schedule: Q01DX010 (ip), vehicle: saline
[2] = dose: 50.0 mg/kg/injection, schedule: Q01DX010 (ip), vehicle: saline
[3] = dose: 100.0 mg/kg/injection, schedule: Q01DX010 (ip), vehicle: saline
[4] = dose: 200.0 mg/kg/injection, schedule: Q01DX010 (ip), vehicle: saline
[5] = dose: 25.0 mg/kg/injection, schedule: Q01DX010 (ip), vehicle: carboxymethylcellulose (CMC)
[6] = dose: 50.0 mg/kg/injection, schedule: Q01DX010 (ip), vehicle: carboxymethylcellulose (CMC)

For `CC(=O)O[C@]1(C(C)=O)CC[C@H]2[C@@H]3C[C@H](C)C4=CC(=O)C=C[C@]4(C)[C@@]3(F)[C@@H](O)C[C@@]21C`, the T/C (dose: 5.0 mg/kg/injection, schedule: Q01DX010 (sc), vehicle: steriod suspending solution) was 87 % of control, the T/C (dose: 10.0 mg/kg/injection, schedule: Q01DX010 (sc), vehicle: steriod suspending solution) was 106 % of control and the T/C (dose: 20.0 mg/kg/injection, schedule: Q01DX010 (sc), vehicle: steriod suspending solution) was 74 % of control. The T/C (dose: 40.0 mg/kg/injection, schedule: Q01DX010 (sc), vehicle: steriod suspending solution) was 47 % of control.

`CC(=O)Nc1ccc2nc3ccc(NC(C)=O)cc3[n+](-c3ccccc3)c2c1` was tested, and the T/C [1] was 56 % of control, the T/C [2] was 21 % of control and the T/C [3] was 12 % of control. For the same molecule, the T/C [4] was 3 % of control.

`C1CN1c1nc(N2CC2)nc(N2CC2)n1` was tested, and the T/C (dose: 0.06 mg/kg/injection, schedule: Q01DX010 (ip), vehicle: saline) was 77 % of control and 78 % of control, the T/C (dose: 0.12 mg/kg/injection, schedule: Q01DX010 (ip), vehicle: saline) was 78 % of control and 86 % of control and the T/C (dose: 0.25 mg/kg/injection, schedule: Q01DX010 (ip), vehicle: saline) was 44 % of control and 54 % of control.

In the case of `Nc1nc(=S)c2[nH]cnc2[nH]1`, the T/C (dose: 0.12 mg/kg/injection, schedule: Q01DX010 (ip), vehicle: carboxymethylcellulose (CMC)) is reported as 77 % of control, the T/C (dose: 0.25 mg/kg/injection, schedule: Q01DX010 (ip), vehicle: carboxymethylcellulose (CMC)) is reported as 64 % of control and the T/C (dose: 0.5 mg/kg/injection, schedule: Q01DX010 (ip), vehicle: carboxymethylcellulose (CMC)) is reported as 81 % of control.

In the case of `O=c1cn[nH]c(=O)[nH]1`, the T/C (dose: 375.0 mg/kg/injection, schedule: Q01DX010 (ip), vehicle: carboxymethylcellulose (CMC)) is reported as 90 % of control.

With `C[C@H]1C(=O)O[C@@H]2CCN3CC=C(COC(=O)[C@](C)(O)[C@@]1(C)O)[C@H]23` the T/C (dose: 3.75 mg/kg/injection, schedule: Q01DX010 (ip), vehicle: carboxymethylcellulose (CMC)) was 73 % of control, the T/C (dose: 7.5 mg/kg/injection, schedule: Q01DX010 (ip), vehicle: carboxymethylcellulose (CMC)) was 68 % of control and the T/C (dose: 15.0 mg/kg/injection, schedule: Q01DX010 (ip), vehicle: carboxymethylcellulose (CMC)) was 44 % of control. The T/C (dose: 30.0 mg/kg/injection, schedule: Q01DX010 (ip), vehicle: carboxymethylcellulose (CMC)) was 23 % of control.

`C[C@]12CCC(=O)C=C1CC[C@H]1[C@@H]3CC[C@](O)(C(=O)CO)[C@@]3(C)C[C@H](O)[C@@]12F` was tested, and the T/C (dose: 0.5 mg/kg/injection, schedule: Q01DX011 (sc), vehicle: steriod suspending solution) was 76 % of control, the T/C (dose: 1.0 mg/kg/injection, schedule: Q01DX011 (sc), vehicle: steriod suspending solution) was 36 % of control and the T/C (dose: 2.0 mg/kg/injection, schedule: Q01DX011 (sc), vehicle: steriod suspending solution) was 61 % of control. For the same molecule, the T/C (dose: 2.5 mg/kg/injection, schedule: Q01DX015 (ip), vehicle: carboxymethylcellulose (CMC)) was 103 % of control, the T/C (dose: 3.5 mg/kg/injection, schedule: Q01DX011 (sc), vehicle: steriod suspending solution) was 64 % of control and the T/C (dose: 5.0 mg/kg/injection, schedule: Q01DX015 (ip), vehicle: carboxymethylcellulose (CMC)) was 105 % of control.

`Cn1cnc([N+](=O)[O-])c1Sc1nc(N)nc2nc[nH]c12` was tested, and the T/C (dose: 2.5 mg/kg/injection, schedule: Q01DX010 (ip), vehicle: saline) was 53 % of control, the T/C (dose: 5.0 mg/kg/injection, schedule: Q01DX010 (ip), vehicle: saline) was 62 % of control and the T/C (dose: 10.0 mg/kg/injection, schedule: Q01DX010 (ip), vehicle: saline) was 37 % of control.

`N#CCSc1ncnc2nc[nH]c12` was tested, and the T/C [5] was 49 % of control and the T/C [6] was 46 % of control.

With `O=c1[nH]c(=O)n(C2CC(O)C(CO)O2)cc1F` (centres undefined) the T/C [5] was 42 % of control and the T/C [6] was 30 % of control.

In the case of `CCCSc1ncnc2nc[nH]c12`, the T/C (dose: 31.0 mg/kg/injection, schedule: Q01DX010 (ip), vehicle: carboxymethylcellulose (CMC)) is reported as 84 % of control, the T/C (dose: 62.0 mg/kg/injection, schedule: Q01DX010 (ip), vehicle: carboxymethylcellulose (CMC)) is reported as 70 % of control and the T/C (dose: 125.0 mg/kg/injection, schedule: Q01DX010 (ip), vehicle: carboxymethylcellulose (CMC)) is reported as 51 % of control and 52 % of control.

In the case of `CC(=O)[C@@]1(O)CC[C@H]2[C@@H]3C[C@H](C)C4=CC(=O)C=C[C@]4(C)[C@@]3(F)[C@@H](O)C[C@@]21C`, the T/C (dose: 8.0 mg/kg/injection, schedule: Q01DX010 (sc), vehicle: steriod suspending solution) is reported as 37 % of control and the T/C (dose: 16.0 mg/kg/injection, schedule: Q01DX010 (sc), vehicle: steriod suspending solution) is reported as 18 % of control.

`S=C(N=Nc1ccccc1)NNc1ccccc1` was tested, and the T/C (dose: 37.5 mg/kg/injection, schedule: Q01DX010 (ip), vehicle: carboxymethylcellulose (CMC)) was 64 % of control.

In the case of `CS(=O)(=O)OCCCl`, the T/C [5] is reported as 89 % of control and the T/C [6] is reported as 88 % of control.

In the case of `CC12C=CC(=O)C=C1CCC1C3CCC(O)(C(=O)CO)C3(C)CC(O)C12F` (centres undefined), the T/C (dose: 3.0 mg/kg/injection, schedule: Q01DX010 (sc), vehicle: steriod suspending solution) is reported as 85 % of control, the T/C (dose: 6.0 mg/kg/injection, schedule: Q01DX010 (sc), vehicle: steriod suspending solution) is reported as 58 % of control and the T/C (dose: 12.0 mg/kg/injection, schedule: Q01DX010 (sc), vehicle: steriod suspending solution) is reported as 56 % of control.

`O=C(Nc1ccc(C2=NCCCN2)cc1)c1ccc(NC(=O)c2ccc(C3=NCCCN3)cc2)cc1` was tested, and the T/C (dose: 2.0 mg/kg/injection, schedule: Q01DX010 (ip), vehicle: carboxymethylcellulose (CMC)) was 73 % of control, the T/C (dose: 4.0 mg/kg/injection, schedule: Q01DX010 (ip), vehicle: carboxymethylcellulose (CMC)) was 50 % of control and the T/C (dose: 8.0 mg/kg/injection, schedule: Q01DX010 (ip), vehicle: carboxymethylcellulose (CMC)) was 15 % of control.

For `O=[n+]1c2c(n([O-])c3ccccc31)-c1cccc3cccc-2c13`, the T/C [1] was 84 % of control, the T/C [2] was 37 % of control and the T/C [3] was 36 % of control. For the same molecule, the T/C [4] was 19 % of control.

`CN(C)/N=N/c1nc[nH]c1C(N)=O` was tested, and the T/C (dose: 75.0 mg/kg/injection, schedule: Q01DX015 (ip), vehicle: carboxymethylcellulose (CMC)) was 73 % of control, the T/C (dose: 100.0 mg/kg/injection, schedule: Q01DX015 (ip), vehicle: carboxymethylcellulose (CMC)) was 69 % of control and the T/C (dose: 125.0 mg/kg/injection, schedule: Q01DX015 (ip), vehicle: carboxymethylcellulose (CMC)) was 57 % of control. For the same molecule, the T/C (dose: 150.0 mg/kg/injection, schedule: Q01DX015 (ip), vehicle: carboxymethylcellulose (CMC)) was 52 % of control.

In the case of `CCCCn1cnc2c(=S)nc[nH]c21`, the T/C [6] is reported as 78 % of control and the T/C (dose: 100.0 mg/kg/injection, schedule: Q01DX010 (ip), vehicle: carboxymethylcellulose (CMC)) is reported as 43 % of control.

`CN(C)CC(=O)c1ccc(O)c(O)c1` was tested, and the T/C (dose: 250.0 mg/kg/injection, schedule: Q01DX010 (ip), vehicle: saline) was 154 % of control.

With `Nc1nc(F)nc2c1ncn2C1OC(CO)C(O)C1O` (centres undefined) the T/C (dose: 0.75 mg/kg/injection, schedule: Q01DX011 (ip), vehicle: saline) was 73 % of control and the T/C (dose: 1.5 mg/kg/injection, schedule: Q01DX011 (ip), vehicle: saline) was 30 % of control.

`CN(C)c1nc(N(C)C)nc(N(C)C)n1` was tested, and the T/C (dose: 62.5 mg/kg/injection, schedule: Q01DX010 (ip), vehicle: carboxymethylcellulose (CMC)) was 119 % of control, the T/C (dose: 250.0 mg/kg/injection, schedule: Q01DX010 (ip), vehicle: carboxymethylcellulose (CMC)) was 88 % of control and the T/C (dose: 500.0 mg/kg/injection, schedule: Q01DX010 (ip), vehicle: carboxymethylcellulose (CMC)) was 106 % of control.

For `Nc1ncnc2[nH]ncc12`, the T/C (dose: 6.25 mg/kg/injection, schedule: Q01DX010 (ip), vehicle: carboxymethylcellulose (CMC)) was 73 % of control and the T/C (dose: 12.5 mg/kg/injection, schedule: Q01DX010 (ip), vehicle: carboxymethylcellulose (CMC)) was 64 % of control.
